Consider 46 molecules from US5097013A, “Novel peptides possessing a macrophage chemotactic activity” (Kao Corporation, priority 1988, dated 1992).

Square brackets hold non-standard residues; d marks the D form. Peptide text beside a SMILES is read from it. * marks the point of attachment. Fmoc = O=C(OCC1c2ccccc2-c2ccccc21)*; dNle = CCCC[C@@H](N)C(=O)O

For the test, the system named is macrophage (peritoneal exudate cells). Description: Macrophage chemotactic activity, 48 well chemotaxis chamber. Format: cell-based, guinea pig. The conditions noted are these: for Activity (macrophage chemotactic activity): Table 2, test described in Example 64, relative scale, Compound No. 1 = 100. As for the experimental part: Macrophage chemotactic activity in the examples was determined as follows.
Peritoneal exudate cells (usually more than 95% were macrophage) collected from guinea pig in which liquid paraffin had previously been peritoneally injected 3 or 4 days before were used as macrophage in a cell concentration of 2×10^6 /ml.
A sample which activity was to be determined was charged in lower wells of a 48 well chemotaxis chamber and a polycarbonate membrane having a pore size of 5 μm was put thereon, and the macrophage suspension was charged in upper wells followed by incubation at 37° C. for 90 minutes in a CO2 incubator. After the incubation, adherent cells on the non-chemotactic surface was removed, fixed and subjected to Giemsa staining and then to inclusion treatment. Then, the cells on the chemotactic surface were microscopically (×400) counted and the cell count was made MCF activity.
The peptide synthesized in Example 5 was dissolved in 5 mM MgCl2 and the solution was suitably diluted with 0.5% FCS-containing Hanks' medium.

For `CC(C)C[C@H](NC(=O)[C@H](Cc1c[nH]c2ccccc12)NC(=O)OCC1c2ccccc2-c2ccccc21)C(=O)NCC(=O)N[C@@H](CCCNC(=N)N)C(=O)N[C@@H](CCC(=O)O)C(=O)N[C@@H](CC(=O)O)C(=O)NCC(=O)N[C@@H](CO)C(=O)N[C@@H](CCC(=O)O)C(=O)O` [Compound 13, Fmoc-L-Trp-L-Leu-Gly-L-Arg-L-Glu-L-Asp-Gly-L-Ser-L-Glu-OH] (Fmoc-WLGREDGSE-OH), the “Activity (macrophage chemotactic activity)” value is under 10.

For `CC(C)C[C@H](NC(=O)[C@@H](N)Cc1c[nH]c2ccccc12)C(=O)NCC(=O)N[C@@H](CCCNC(=N)N)C(=O)O` [Compound 27, H-L-Trp-L-Leu-Gly-L-Arg-OH] (H-WLGR-OH), the “Activity (macrophage chemotactic activity)” value is on record as under 10.

Regarding `CC(C)C[C@H](NC(=O)[C@H](Cc1c[nH]c2ccccc12)NC(=O)OCC1c2ccccc2-c2ccccc21)C(=O)NCC(=O)N[C@@H](CCCNC(=N)N)C(=O)N[C@@H](CCC(=O)O)C(=O)N[C@@H](CC(=O)O)C(=O)O` [Compound 29, Fmoc-L-Trp-L-Leu-Gly-L-Arg-L-Glu-L-Asp-OH] (Fmoc-WLGRED-OH), the “Activity (macrophage chemotactic activity)” value was under 10.

For the molecule `CC(C)C[C@H](NC(=O)[C@@H](Cc1c[nH]c2ccccc12)NC(=O)OCC1c2ccccc2-c2ccccc21)C(=O)NCC(=O)N[C@@H](CCCNC(=N)N)C(=O)N[C@@H](CCC(=O)O)C(=O)N[C@@H](CC(=O)O)C(=O)O` [Compound 30, Fmoc-D-Trp-L-Leu-Gly-L-Arg-L-Glu-L-Asp-OH] (Fmoc-[dW]LGRED-OH), the “Activity (macrophage chemotactic activity)” value was under 10.

As for `CC(C)C[C@@H](NC(=O)[C@H](Cc1c[nH]c2ccccc12)NC(=O)OCC1c2ccccc2-c2ccccc21)C(=O)NCC(=O)N[C@@H](CCCNC(=N)N)C(=O)N[C@@H](CCC(=O)O)C(=O)N[C@@H](CC(=O)O)C(=O)O` [Compound 32, Fmoc-L-Trp-D-Leu-Gly-L-Arg-L-Glu-L-Asp-OH] (Fmoc-W[dL]GRED-OH), the “Activity (macrophage chemotactic activity)” value is on record as under 10.

Regarding `CC(C)C[C@H](NC(=O)[C@H](Cc1c[nH]c2ccccc12)NC(=O)OCC1c2ccccc2-c2ccccc21)C(=O)NCC(=O)N[C@@H](CCCNC(=N)N)C(=O)N[C@H](CCC(=O)O)C(=O)N[C@@H](CC(=O)O)C(=O)O` [Compound 34, Fmoc-L-Trp-L-Leu-Gly-L-Arg-D-Glu-L-Asp-OH] (Fmoc-WLGR[dE]D-OH), the “Activity (macrophage chemotactic activity)” value is under 10.

Consider `CC(C)C[C@H](NC(=O)[C@H](Cc1c[nH]c2ccccc12)NC(=O)OCC1c2ccccc2-c2ccccc21)C(=O)NCC(=O)N[C@@H](CCCNC(=N)N)C(=O)N[C@@H](CCC(=O)O)C(=O)N[C@H](CC(=O)O)C(=O)O` [Compound 39, Fmoc-L-Trp-L-Leu-Gly-L-Arg-L-Glu-D-Asp-OH] (Fmoc-WLGRE[dD]-OH), for which the “Activity (macrophage chemotactic activity)” value turned out to be 10.

Consider H-FLGREDGSE-OH [Compound 7], for which the “Activity (macrophage chemotactic activity)” value was under 10.

As for H-KWLGREDGSE-OH [Compound 3], the “Activity (macrophage chemotactic activity)” value is recorded as 80.

For the molecule “H-L-Glu-L-Asp-Gly-L-Ser-L-Glu-OH [Compound 25]”, the “Activity (macrophage chemotactic activity)” value is reported as under 10.

On to “H-L-Trp-L-AIa-Gly-L-Arg-L-Glu-L-Asp-Gly-L-Ser-L-Glu-NH2 [Compound 44]”, for which the “Activity (macrophage chemotactic activity)” value was under 10.

Take “H-L-Trp-L-Leu-Gly-L-Arg-L-Glu-OH [Compound 24]”: the “Activity (macrophage chemotactic activity)” value is on record as under 10.

H-LGREDGSE-OH [Compound 51]: the “Activity (macrophage chemotactic activity)” value is on record as under 10.

With H-MWLGRED-OH [Compound 47], the “Activity (macrophage chemotactic activity)” value is under 10.

On to H-WAGRED-OH [Compound 42], for which the “Activity (macrophage chemotactic activity)” value is given as under 10.

In the case of H-WAGREDGSE-OH [Compound 9], the “Activity (macrophage chemotactic activity)” value was under 10.

As to H-WGGREDGSE-OH [Compound 52], the “Activity (macrophage chemotactic activity)” value is reported as under 10.

On to H-WIIREDGSE-OH [Compound 43], for which the “Activity (macrophage chemotactic activity)” value is recorded as under 10.

For the molecule H-WLGKEDGSE-OH [Compound 8], the “Activity (macrophage chemotactic activity)” value was under 10.

On to H-WLGLEDGSE-OH [Compound 49], for which the “Activity (macrophage chemotactic activity)” value is given as 10.

In the case of H-WLGRED-NH2 [Compound 26], the “Activity (macrophage chemotactic activity)” value was determined as 10.

Turning to H-WLGRED-OH [Compound 23], the “Activity (macrophage chemotactic activity)” value is 10.

Turning to H-WLGREDG-OH [Compound 22], the “Activity (macrophage chemotactic activity)” value was under 10.

As for H-WLGREDGAE-OH [Compound 20], the “Activity (macrophage chemotactic activity)” value is under 10.

Consider H-WLGREDGCE-OH [Compound 17], for which the “Activity (macrophage chemotactic activity)” value is under 10.

Turning to H-WLGREDGLL-NH2 [Compound 46], the “Activity (macrophage chemotactic activity)” value is under 10.

Turning to H-WLGREDGS-OH [Compound 21], the “Activity (macrophage chemotactic activity)” value was 10.

On to H-WLGREDGSD-OH [Compound 4], for which the “Activity (macrophage chemotactic activity)” value worked out at 10.

In the case of H-WLGREDGSE-NH2 [Compound 12], the “Activity (macrophage chemotactic activity)” value was under 10.

In the case of “H-WLGREDGSE-OH [Compound 1, H-L-Trp-L-Leu-Gly-L-Arg-L-Glu-L-Asp-Gly-L-Ser-L-Glu-OH]”, the “Activity (macrophage chemotactic activity)” value was 100. For the same molecule, the “macrophage chemotactic activity (in words)” value (dissolved in 5 mM MgCl2, diluted with 0.5% FCS-containing Hanks' medium) was “high activities”. Also, where the note is “relative activity, Table 1 (culture supernatant of hybridoma MCF-A51 = 100.0, medium alone 10.0), 3 × 10^-8 M, dissolved in 5 mM MgCl2, diluted with 0.5% FCS-containing Hanks' medium”, the “Macrophage Chemotactic Activity” value is 41.4.

Consider H-WLGREDGSQ-OH [Compound 28], for which the “Activity (macrophage chemotactic activity)” value was under 10.

In the case of H-WLGREDG[dS]E-OH [Compound 36], the “Activity (macrophage chemotactic activity)” value is under 10.

Take H-WLGREEGS-OH [Compound 38]: the “Activity (macrophage chemotactic activity)” value was under 10.

In the case of H-WLGRENGSE-OH [Compound 5], the “Activity (macrophage chemotactic activity)” value is listed as under 10.

With “H-WLGRGDGSE-OH [Compound 48, H-L-Trp-L-Leu-Gly-L-Arg-Gly-L-Asp-Gly-L-Ser-L-Glu-OH]”, the “Activity (macrophage chemotactic activity)” value was under 10.

With H-WLGRQDGSE-OH [Compound 2], the “Activity (macrophage chemotactic activity)” value is on record as 80.

For the molecule “H-WLGRQNGSQ-NH2 [Compound 11, H-L-Trp-L-Leu-Gly-L-Arg-L-Gln-L-Asn-Gly-L-Ser-L-Gln-NH2]”, the “Activity (macrophage chemotactic activity)” value is reported as under 10.

With H-WLGR[dE]DGSE-OH [Compound 41], the “Activity (macrophage chemotactic activity)” value is listed as under 10.

H-WLGYEDGSE-OH [Compound 18]: the “Activity (macrophage chemotactic activity)” value is listed as 50.

Turning to H-WLG[dR]EDGSE-OH [Compound 14], the “Activity (macrophage chemotactic activity)” value is reported as 80.

Regarding H-WLIREDGSE-OH [Compound 6], the “Activity (macrophage chemotactic activity)” value was under 10.

Take H-WPREDGSE-OH [Compound 10]: the “Activity (macrophage chemotactic activity)” value was under 10.

As to H-WVREDGSE-OH [Compound 50], the “Activity (macrophage chemotactic activity)” value was under 10.

As to H-W[dL]GREDGSE-OH [Compound 37], the “Activity (macrophage chemotactic activity)” value is listed as under 10.

In the case of H-W[dNle]GREDGSE-OH [Compound 15], the “Activity (macrophage chemotactic activity)” value is reported as under 10.

For H-[dW]LGREDGSE-OH [Compound 16], the “Activity (macrophage chemotactic activity)” value is recorded as under 10.
